These results are taken from patent publication US9630958B2, “Triazine compounds” (Sphaera Pharma Pte. Ltd., priority 2012, dated 2017).

What is called IC50 is the concentration needed to halve the response being measured.

The target of one experiment is T1, Recombinant mTOR (FRAP1) (Homo sapiens, UniProt P42345).
T1 construct: purchased Invitrogen
Briefly: mTOR in vitro kinase assay (TR-FRET, phosphorylation of GFP-4E-BP1). Particulars: for inhibition at 1 µM: 1 uM compound, read-out: mTOR % Inhib@1 uM; for IC50: 8 μM ATP, 400 nM GFP-4E-BP1. Format: biochemical. The procedure, abridged: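 Recombinant human mTOR with GFP-4E-BP1 substrate at 400 nM and 8 μM ATP, 1 h at room temperature, then quenched with 10 mM EDTA plus 2 nM Tb-anti-p4E-BP1 (pThr46) for 1 h. TR-FRET 520/486 nm ratio fitted against inhibitor concentration by four-parameter sigmoidal regression.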
(TR-FRET usually uses a lanthanide donor and a delayed reading to cut background.)

Experiment [1] concerns the target T2, PI3 Kinase alpha (p110 alpha/p85 alpha) (Homo sapiens, UniProt P42336).
T2 construct: purchased Invitrogen
Nature of the experiment: PI3K TR-FRET assay (Transcreener ADP2). Format: biochemical. To be noted: for inhibition at 1 µM: 1 uM compound, read-out: PI3K % Inhib@1 uM; for IC50: PI3K alpha, 1 μM ATP, 50 μM PIP2. The procedure, abridged: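 p110α/p85α with diC8 PIP2 (50 μM) and 1 μM ATP in 50 mM HEPES pH 7.4, MgCl2, CHAPS, DTT, EGTA; 1 h at room temperature. ADP detected by Transcreener ADP2 TR-FRET (665/615 nm ratio), converted to product via ADP-ATP standard curve; IC50 from four-parameter fit of % inhibition.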

T2 sequence (P42336 whole entry): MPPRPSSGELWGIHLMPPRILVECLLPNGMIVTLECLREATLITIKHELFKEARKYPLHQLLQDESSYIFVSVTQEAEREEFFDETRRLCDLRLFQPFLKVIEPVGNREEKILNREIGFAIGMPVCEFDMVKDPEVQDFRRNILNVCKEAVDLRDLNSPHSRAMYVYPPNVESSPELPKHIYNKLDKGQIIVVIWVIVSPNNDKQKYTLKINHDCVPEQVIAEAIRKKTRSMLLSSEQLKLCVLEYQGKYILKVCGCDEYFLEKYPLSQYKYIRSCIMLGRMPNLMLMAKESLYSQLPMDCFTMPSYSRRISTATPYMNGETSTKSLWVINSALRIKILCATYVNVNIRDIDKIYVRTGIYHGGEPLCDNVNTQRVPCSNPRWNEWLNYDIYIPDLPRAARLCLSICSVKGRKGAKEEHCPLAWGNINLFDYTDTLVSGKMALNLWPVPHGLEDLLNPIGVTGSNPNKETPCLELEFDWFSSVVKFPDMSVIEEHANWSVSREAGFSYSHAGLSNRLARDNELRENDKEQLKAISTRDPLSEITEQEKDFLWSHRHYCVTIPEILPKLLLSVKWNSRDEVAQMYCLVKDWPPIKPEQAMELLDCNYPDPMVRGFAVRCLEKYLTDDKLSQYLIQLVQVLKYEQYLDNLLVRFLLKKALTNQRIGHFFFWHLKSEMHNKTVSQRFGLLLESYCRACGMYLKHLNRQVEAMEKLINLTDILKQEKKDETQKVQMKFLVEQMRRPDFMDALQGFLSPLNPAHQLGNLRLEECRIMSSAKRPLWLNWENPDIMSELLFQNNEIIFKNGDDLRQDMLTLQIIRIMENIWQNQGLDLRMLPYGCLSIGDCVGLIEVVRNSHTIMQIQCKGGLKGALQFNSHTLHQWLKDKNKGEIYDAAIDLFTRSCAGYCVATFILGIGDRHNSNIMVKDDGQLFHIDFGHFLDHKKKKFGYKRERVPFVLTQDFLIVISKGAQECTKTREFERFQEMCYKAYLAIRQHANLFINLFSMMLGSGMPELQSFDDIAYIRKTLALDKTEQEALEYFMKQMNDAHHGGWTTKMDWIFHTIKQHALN
T2 sequence (P27986 whole entry partner): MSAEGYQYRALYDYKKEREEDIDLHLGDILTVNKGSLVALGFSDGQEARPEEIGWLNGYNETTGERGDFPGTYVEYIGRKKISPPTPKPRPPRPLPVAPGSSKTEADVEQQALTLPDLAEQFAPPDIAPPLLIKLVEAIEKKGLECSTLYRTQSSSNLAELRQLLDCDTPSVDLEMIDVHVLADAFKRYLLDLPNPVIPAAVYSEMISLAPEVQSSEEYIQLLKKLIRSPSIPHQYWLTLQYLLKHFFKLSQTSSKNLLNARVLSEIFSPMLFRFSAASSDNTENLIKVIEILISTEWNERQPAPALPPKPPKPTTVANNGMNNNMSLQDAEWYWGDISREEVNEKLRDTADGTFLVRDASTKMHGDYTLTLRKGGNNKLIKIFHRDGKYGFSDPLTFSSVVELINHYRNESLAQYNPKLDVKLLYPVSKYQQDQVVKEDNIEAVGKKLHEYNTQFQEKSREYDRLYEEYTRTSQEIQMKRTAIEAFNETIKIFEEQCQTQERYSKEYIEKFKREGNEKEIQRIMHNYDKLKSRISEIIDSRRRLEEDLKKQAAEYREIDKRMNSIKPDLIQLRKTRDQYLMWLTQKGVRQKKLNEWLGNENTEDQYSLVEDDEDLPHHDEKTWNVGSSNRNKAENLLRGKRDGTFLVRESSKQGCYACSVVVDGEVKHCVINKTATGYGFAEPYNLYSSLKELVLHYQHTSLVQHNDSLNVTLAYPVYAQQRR
T1 sequence (P42345 1360-2549 limits assumed): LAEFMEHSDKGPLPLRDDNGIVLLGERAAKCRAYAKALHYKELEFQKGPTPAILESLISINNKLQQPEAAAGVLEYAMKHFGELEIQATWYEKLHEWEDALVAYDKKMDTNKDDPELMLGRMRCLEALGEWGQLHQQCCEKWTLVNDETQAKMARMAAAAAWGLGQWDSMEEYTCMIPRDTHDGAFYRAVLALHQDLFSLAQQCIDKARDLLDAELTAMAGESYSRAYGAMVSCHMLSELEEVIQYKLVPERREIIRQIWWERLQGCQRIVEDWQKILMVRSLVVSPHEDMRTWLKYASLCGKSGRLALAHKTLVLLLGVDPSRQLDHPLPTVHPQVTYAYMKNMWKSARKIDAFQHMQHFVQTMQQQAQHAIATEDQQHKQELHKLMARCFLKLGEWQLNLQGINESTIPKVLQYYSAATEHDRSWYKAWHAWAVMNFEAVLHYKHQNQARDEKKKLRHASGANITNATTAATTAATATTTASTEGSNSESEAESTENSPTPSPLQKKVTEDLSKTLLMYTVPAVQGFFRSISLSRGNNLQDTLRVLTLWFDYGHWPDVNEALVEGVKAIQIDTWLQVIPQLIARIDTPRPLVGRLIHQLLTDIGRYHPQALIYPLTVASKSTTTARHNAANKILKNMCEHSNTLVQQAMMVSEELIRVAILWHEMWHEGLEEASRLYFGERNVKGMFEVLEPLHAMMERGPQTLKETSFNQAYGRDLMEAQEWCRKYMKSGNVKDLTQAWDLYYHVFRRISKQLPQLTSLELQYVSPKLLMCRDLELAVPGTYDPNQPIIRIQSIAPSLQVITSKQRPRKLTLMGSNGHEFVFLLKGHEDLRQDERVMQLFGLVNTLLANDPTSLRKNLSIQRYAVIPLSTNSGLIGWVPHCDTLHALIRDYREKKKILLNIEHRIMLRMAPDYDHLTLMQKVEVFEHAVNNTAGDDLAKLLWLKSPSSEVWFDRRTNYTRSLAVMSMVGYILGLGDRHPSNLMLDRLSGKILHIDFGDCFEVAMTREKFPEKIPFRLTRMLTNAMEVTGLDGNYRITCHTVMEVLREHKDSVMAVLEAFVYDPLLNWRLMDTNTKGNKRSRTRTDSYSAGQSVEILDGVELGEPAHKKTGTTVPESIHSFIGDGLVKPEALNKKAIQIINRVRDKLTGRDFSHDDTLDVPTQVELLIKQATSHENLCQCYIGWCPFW

Take `C[C@@H]1CN(c2nc(Oc3ccc(C(=O)N(C)C)cc3)nc(-c3cnc(N)s3)n2)C[C@H](C)O1` [Compound 10122, 4-(4-(2-aminothiazol-5-yl)-6-((2S,6R)-2,6-dimethylmorpholino)-1,3,5-triazin-2-yloxy)-N,N-dimethylbenzamide]: on Recombinant mTOR (FRAP1), the inhibition at 1 µM is > 50% and the IC50 is > 1000 nM. Moreover, in experiment [1], the inhibition at 1 µM is < 50%.

For the molecule `CN(C)C(=O)[C@H]1CC[C@H](Oc2nc(-c3ccc(N)nc3)nc(N3CCO[C@@H]4CCC[C@H]43)n2)CC1` [Compound 10148, (1R,4r)-4-(4-(6-aminopyridin-3-yl)-6-((4aR,7aR)-hexahydrocyclopenta[b][1,4]oxazin-4(4aH)-yl)-1,3,5-triazin-2-yloxy)-N,N-dimethylcyclohexanecarboxamide], the IC50 on Recombinant mTOR (FRAP1) is < 1000 nM. For the same molecule, the inhibition at 1 µM in experiment [1] is < 50%.

In the case of `C[C@H]1COCCN1c1nc(O[C@H]2CC[C@H](C(=O)N(C)C)CC2)nc(-c2cnc(N)s2)n1` [Compound 10139, (1S,4r)-4-(4-(2-aminothiazol-5-yl)-6-((S)-3-methylmorpholino)-1,3,5-triazin-2-yloxy)-N,N-dimethylcyclohexanecarboxamide], the inhibition at 1 µM at Recombinant mTOR (FRAP1) was > 50%. The concentration for half-maximal inhibition (IC50) (on Recombinant mTOR (FRAP1); in experiment [1]) was < 1000 nM throughout.

Turning to `CN(C)C(=O)c1ccc(Oc2nc(Nc3nccs3)nc(N3CCOCC3)n2)cc1` [Compound 10191, N,N-dimethyl-4-((4-morpholino-6-(thiazol-2-ylamino)-1,3,5-triazin-2-yl)oxy)benzamide], on Recombinant mTOR (FRAP1), the inhibition at 1 µM is < 50%. The concentration for half-maximal inhibition (IC50) in experiment [1] is > 1000 nM.

With `C[C@@H]1CN(c2nc(Oc3ccc(C(=O)N(C)C)cc3)nc(-c3cnc(N)s3)n2)[C@@H](C)CO1` [Compound 10076, 4-((4-(2-Aminothiazol-5-yl)-6-((2R,5S)-2,5-dimethylmorpholino)-1,3,5-triazin-2-yl)oxy)-N,N-dimethylbenzamide], the inhibition at 1 µM was > 50% on Recombinant mTOR (FRAP1) and < 50% in experiment [1]. Further, the results for the IC50 (at Recombinant mTOR (FRAP1); in experiment [1]) were < 1000 nM and > 1000 nM, respectively.

Turning to `CN(C)C(=O)N1CCC(Oc2nc(-c3cnc(N)s3)nc(N3CCOCC3)n2)CC1` [Compound 10003, 4-(4-(2-aminothiazol-5-yl)-6-morpholino-1,3,5-triazin-2-yloxy)-N,N-dimethylpiperidine-1-carboxamide], on Recombinant mTOR (FRAP1), the inhibition at 1 µM is > 50% and the IC50 is < 1000 nM. Also, the IC50 in experiment [1] is < 1000 nM.

For the molecule `CN(C)C(=O)c1ccc(Oc2nc(-c3cnc(N)s3)nc(N3CCCOCC3)n2)cc1` [Compound 10192, 4-((4-(2-aminothiazol-5-yl)-6-(1,4-oxazepan-4-yl)-1,3,5-triazin-2-yl)oxy)-N,N-dimethylbenzamide], at Recombinant mTOR (FRAP1), the inhibition at 1 µM was < 50% and the IC50 was > 1000 nM. Moreover, the IC50 in experiment [1] is > 1000 nM.
